Values after ≈ are worked out from the molar mass of the structure shown. Values joined by “and” are separate entries in the source; they are usually repeats but may differ in a detail not shown here. Equal entries are not always repeated.
Columns and labels:
[1] = tested on: S. aureus ATCC 43300; experiment: MIC/MBC broth microdilution, S. aureus; assay type: cell-based, Staphylococcus aureus; conditions: for MBC / MIC: S. aureus
[2] = tested on: human dermal fibroblast cell line (46BR.1N); experiment: XTT cell proliferation assay, fibroblasts; assay type: cell-based; conditions: XTT
Experimental: (§1) In our study, we used two distinct cell types: immortalized human HaCaT keratinocytes (DKFZ, Heidelberg, Germany) and a human dermal fibroblast cell line (46BR.1N). […] Cultures were maintained in a humidified atmosphere with 5% CO2 at 37 °C in 25 cm^2 culture flasks with the medium replenished every 2 days. The condition of the cells was monitored using optical microscopy. […] After 24 h of incubation, the medium was replaced with serum-free HG-DMEM containing appropriate concentrations of peptidomimetics. All solutions used in the experiments were prepared with double-distilled water or with the addition of ethanol under sterile conditions to ensure compatibility with the conditions of the bacteriological assay. For 72 h of incubation, half of the medium was replaced with fresh medium after 48 h, and cells were stimulated with peptides for a second time. The XTT cell proliferation assay was then performed according to the manufacturer’s instructions (Roche, Switzerland). Cells were treated with the peptides for either 48 or 72 h, followed by the addition of XTT reagent, and the plates were then incubated at 37 °C in a 5% CO2 environment for 4 h. Plate readings were taken using a standard plate reader at a wavelength of 490 nm (OD = 490 nm). […] Statistical significance was determined with a Mann–Whitney U test with statistical significance p ≤ 0.05. Analysis was performed with Statistica software, and graphs were prepared in GraphPad Prism.

[3] = tested on: P. vulgaris ATCC 6896; experiment: MIC/MBC broth microdilution, P. vulgaris; assay type: cell-based, Proteus vulgaris
Experimental: (§2) S. aureus (ATCC 29213),S. pyogenes (ATCC 19615),Streptococcus agalactiae (ATCC 27956),Escherichia coli (ATCC 25922),Proteus vulgaris (ATCC 6896),K. pneumoniae (ATCC 700603) andP. aeruginosa (ATCC 10145) reference strains, as well asStaphylococcus cohnii, Enterococcus faecalis, Staphylococcus schleiferi, Staphylococcus intermedius and Streptococcus mutans clinical isolates, were used to test the antibacterial activity of the peptidomimetics. Bacteria were aerobically cultured for 18 h at 37 °C in plates with sterilized brain heart infusion (BHI) broth (Sigma-Aldrich, USA) media mixed with bacteriological agar (Sigma-Aldrich, USA) using the streak plate method. After 18 h, BHI broth was inoculated to 0.5 on the McFarland scale and diluted to approximately 10^5 CFU/mL. To achieve a final stock concentration of 1024 μg/mL, the peptidomimetics were dissolved in sterile water, and 5–10% of absolute ethanol or dimethyl sulfoxide (DMSO) was added. The antibacterial activities were determined by using the standard broth microdilution method of the National Committee for Clinical Laboratory Standards. The process involved adding serially diluted peptidomimetics to consecutive wells of a 96-well microtiter plate (Brand, Germany) holding media with microorganisms. The inoculated plates treated with peptides were then placed in an incubator at 37 °C for 18 h. The MIC value was determined as the lowest concentration of peptidomimetic at which there was no obvious growth (equal or more than 90% of the untreated sample). […] The lowest concentration yielding growth in no more than 3 colonies, corresponding to at least a 99.9% kill rate, was taken as MBC. Each biological replicate included control wells with the addition of water, DMSO, and ethanol as respective solvent controls. All experiments were conducted with consistent adherence to growth and sterility controls and were performed at least in technical triplicate with three biological repeats.

[4] = tested on: immortalized human HaCaT keratinocytes; experiment: XTT cell proliferation assay, keratinocytes; assay type: cell-based; conditions: XTT
Experimental: as §1

[5] = tested on: K. pneumoniae ATCC 700603; experiment: MIC/MBC broth microdilution, K. pneumoniae; assay type: cell-based
Experimental: as §2

[6] = tested on: S. schleiferi c.i.; experiment: MIC/MBC broth microdilution, S. schleiferi; assay type: cell-based, Staphylococcus schleiferi
Experimental: as §2

[7] = tested on: P. aeruginosa ATCC 10145; experiment: MIC/MBC broth microdilution, P. aeruginosa; assay type: cell-based
Experimental: as §2

[8] = tested on: S. intemrdius c.i.; experiment: MIC/MBC broth microdilution, S. intermedius; assay type: cell-based, Staphylococcus intermedius
Experimental: as §2

[9] = tested on: fibroblasts (46BR.1N); experiment: LDH cytotoxicity test, fibroblasts; assay type: cell-based; conditions: 48 h, 50-150 μg/mL
Experimental: In our study, we used two distinct cell types: immortalized human HaCaT keratinocytes (DKFZ, Heidelberg, Germany) and a human dermal fibroblast cell line (46BR.1N). […] Cultures were maintained in a humidified atmosphere with 5% CO2 at 37 °C in 25 cm^2 culture flasks with the medium replenished every 2 days. The condition of the cells was monitored using optical microscopy.
Cell death in immortalized human keratinocytes (HaCaT) and fibroblasts (46BR.1N) was measured by quantifying the lactate dehydrogenase (LDH) activity using a commercial kit (Roche, Switzerland). Cells were seeded in 96-well plates at a density of 5000 cells per well in DMEM high glucose medium supplemented with 10% FBS. After 24 h of incubation, the medium was replaced with serum-free medium containing various concentrations of peptidomimetics (50, 100, and 150 μg/mL). After 48 h, supernatants were collected for LDH analysis. Plate readings were taken spectrophotometrically using a 450 nm wavelength. Cell death measurements were normalized to an untreated control (0%), with 1% Triton X-100 detergent used as a positive control to induce maximum LDH release, indicating maximal cytotoxicity. Statistical significance was determined with a Mann–Whitney U test with a statistical significance p ≤ 0.05. Analysis was performed with Statistica software (Krakow, Poland) and graphs were prepared in GraphPad Prism (Boston, USA).

[10] = tested on: E. faecalis c.i.; experiment: MIC/MBC broth microdilution, E. faecalis; assay type: cell-based, Enterococcus faecalis
Experimental: as §2

[11] = tested on: S. mutans c.i.; experiment: MIC/MBC broth microdilution, S. mutans; assay type: cell-based, Streptococcus mutans
Experimental: as §2

[12] = tested on: S. pyogenes ATCC 19615; experiment: MIC/MBC broth microdilution, S. pyogenes; assay type: cell-based, Streptococcus pyogenes; conditions: S. pyogenes
Experimental: as §2

[13] = Hydrophobicity by reverse-phase chromatography; assay type: physicochemical; conditions: acetonitrile content in the mobile phase at the retention time
Text: Reverse-phase chromatography was employed to assess the hydrophobicity characteristics of the peptidomimetics. Hydrophobicity was quantified by determining the acetonitrile content in the mobile phase at the retention time of a peptidyl derivative (Table S2). The least hydrophobic compound (40% acetonitrile) was A-198, which aligns with the calculations of hydrophobicity by SwissADME and pkCSM (Table ). Next in the hydrophobicity sequence were A-197, A-220, A-219, A-174, and A-221, eluting with 42.5-43.9% of acetonitrile. Then there were followed by […], and A-179, with the acetonitrile percentage of 44.8-49.8. The compounds A-176, A-20, A-152, A-134, and A-210 needed over 50% of acetonitrile to be eluted from the column.

[14] = tested on: E. coli ATCC 25922; experiment: MIC/MBC broth microdilution, E. coli; assay type: cell-based, Escherichia coli
Experimental: as §2

## CC(C)[C@@H](CNC(=O)C(=Cc1ccccc1)c1ccccc1)NC(=O)[C@H](CCCNC(=N)N)NC(=O)[C@H](CCCCN)NC(=O)OCc1ccccc1 [Compound A-191]
[1]; H2O
  MBC: 32 mg/L (≈ 44 µM)
  MIC: 32 mg/L (≈ 44 µM)
[1]; water additive DMSO
  MBC: 32 mg/L (≈ 44 µM)
  MIC: 16 mg/L (≈ 22 µM)
[1]; water additive EtOH
  MBC: 32 mg/L (≈ 44 µM)
  MIC: 16 mg/L (≈ 22 µM)
[1]; additive not stated
  MIC value for S. aureus: 16 mg/L
[2]
  proliferation relative to control at 100 and 150 μg/mL: ≤ 20%
[2]; 48 and 72 h, 0.01–150 μg/mL
  effect on proliferation, in words: negative impact
[3]; H2O
  MBC: > 512 mg/L
  MIC: 512 mg/L (≈ 704 µM)
[3]; water additive DMSO
  MIC: > 512 mg/L
[3]; water additive EtOH
  MBC: > 512 mg/L
  MIC: 512 mg/L (≈ 704 µM)
[4]
  proliferation relative to control at 100 and 150 μg/mL: ≤ 20%
[4]; 48 and 72 h, 0.01–150 μg/mL
  effect on proliferation, in words: negative impact
[5]; H2O
  MIC: > 512 mg/L
[5]; water additive DMSO
  MIC: > 512 mg/L
[5]; water additive EtOH
  MBC: > 512 mg/L
  MIC: 512 mg/L (≈ 704 µM)
[6]; H2O
  MBC: 32 mg/L (≈ 44 µM)
  MIC: 8 mg/L (≈ 11 µM)
[6]; water additive DMSO
  MBC: 32 mg/L (≈ 44 µM)
  MIC: 8 mg/L (≈ 11 µM)
[6]; water additive EtOH
  MBC: 32 mg/L (≈ 44 µM)
  MIC: 8 mg/L (≈ 11 µM)
[7]; H2O
  MBC: 256 mg/L (≈ 352 µM)
[7]; water additive DMSO
  MBC: 256 mg/L (≈ 352 µM)
[8]; H2O
  MIC: 32 mg/L (≈ 44 µM)
[8]; water additive DMSO
  MIC: 32 mg/L (≈ 44 µM)
[8]; water additive EtOH
  MIC: 32 mg/L (≈ 44 µM)
[9]
  cytotoxicity (LDH), in words: high cytotoxic effect only to fibroblasts at the highest tested concentration
[10]; H2O
  MBC: > 512 mg/L
  MIC: 512 mg/L (≈ 704 µM)
[10]; water additive DMSO
  MBC: > 512 mg/L
  MIC: 512 mg/L (≈ 704 µM)
[10]; water additive EtOH
  MIC: > 512 mg/L
[11]; water additive DMSO
  MIC: 32 mg/L (≈ 44 µM)
[11]; water additive EtOH
  MIC: 32 mg/L (≈ 44 µM)
[12]; H2O
  MBC: 4 mg/L (≈ 5.5 µM)
  MIC: 4 mg/L (≈ 5.5 µM)
[12]; water additive DMSO
  MBC: 8 mg/L (≈ 11 µM)
  MIC: 4 mg/L (≈ 5.5 µM)
[12]; water additive EtOH
  MBC: 8 mg/L (≈ 11 µM)
  MIC: 4 mg/L (≈ 5.5 µM)
[13]
  % AcCN (acetonitrile required for elution from the column): 44.8% and 44.8–49.8%
[14]; H2O
  MBC: > 512 mg/L
  MIC: 512 mg/L (≈ 704 µM)
[14]; water additive DMSO
  MBC: > 512 mg/L
  MIC: 512 mg/L (≈ 704 µM)
[14]; water additive EtOH
  MBC: > 512 mg/L
  MIC: 512 mg/L (≈ 704 µM)
